Measured values: US9388170B2, “Substituted aminoquinazolines useful as kinases inhibitors” (TELIGENE LTD., priority 2012, dated 2016)
In brackets after ≈: the same amount, converted by molar mass. Like-named read-outs stand apart in the source and are kept apart here.

Assays:
[1] = In vivo NCI-H1975 xenograft study body weight change; conditions: nude mice, 15 mg/kg
Procedure: (§1) A representative protocol for the in vivo experiment is as followed to establish the subcutaneous NCI-H1975 cell line xenograft model in nude mice and to evaluate the in vivo therapeutic efficacy of the compounds: H1975 cells were cultured in RPMI1640 containing 10% fetal bovine serum, 1% L-glutamine, 100 U/mL penicillinG and 100 μg/mL streptomycin. Cells in logarithmic growth phase were harvested and resuspended in 1×PBS for implantation. Tumor xenografts were established by injecting tumor cells 5×10^6/mouse into the right flank by sc under sterile conditions. When the tumors reached an appropriate size (100-200 mm^3), mice were randomized into 6 mice per group (8 mice in control group). The tumors were measured using a caliper in two dimensions, length (a), and width (b). Tumor volumes were estimated from measurements of two diameters of the individual tumors as follows: Tumor Volume(mm^3)=(a×b^2)/2 The tumor sizes and animal body weights were measured twice a week. Mice were observed daily for clinical signs. Blood samples were collected 2 hours after last treatment, plasma samples were prepared and stored at -80° C. Tumor tissues were separated, weighed, taken picture, and subsequently stored at -80° C. for further analysis. All animal experiments were performed in accordance with the Guidelines for Use and Care of Animals of the University of Traditional Medicine. The parameters for in vivo efficacy evaluation were calculated according to the guidance of SFDA. Percent T/C (%) was calculated with the following formula: T/C (%)=(TRTV/CRTV)×100%, where TRTV and CRTV stand for relative tumor volume in treatment group and vehicle control group, respectively. Relative tumor volume (RTV) was calculated using the formula: RTV=Vt/V0, where Vt represents volume on testing day, and V0 represents volume on first day of treatment.

[2] = In vivo NCI-H1975 study AST and ALT change; conditions: NCI-H1975 xenograft, nude mice, 15 mg/kg; in U/L (unit assumed)
Procedure: as §1

[3] = In vivo A431 xenograft body weight change; conditions: nude mice, 10 mg/kg
Procedure: (§2) A representative protocol for the in vivo experiment to establish the subcutaneous A431 cell line xenograft model in nude mice and to evaluate the in vivo therapeutic efficacy of the compounds is similar to the protocol described for subcutaneous NCI—H1975 cell line xenograft model in nude mice. […] Tumor growth inhibition (TGI, %) was calculated.

NCI—H1975 = assay: Cell proliferation assay (MTT), NCI-H1975; format: cell-based; conditions: Homo sapiens, NCI—H1975 cells, 72 hours, read-out: potency (IC50), NCI—H1975 cell assay
Procedure: (§3) A Representative Number of Compounds were Assayed Against Different Cancer Cell Lines Such as A431, BT474, NCI—H1975, SK—OV-3, SK—Br-3 and A549 Using the Cell Proliferation Assays:
(§4) 1. 5×10^3 cells per well in 100 μl of medium were seeded in 96-well plate, here the medium contained 5% FBS
(§5) 2. 24 hours later, 100 μl fresh medium was added with various concentrations of compounds into each well, while the medium here was free of FBS.
(§6) 3. After the cells were treated with compounds for 72 hours, 20 μl MTT (5 mg/ml) was added into each well, and then the assay plate was incubated at 37° C. for 4 more hours.
(§7) 4. The assay plate was centrifuged at 800 g for 10 min. The medium was aspirated, 150 μl DMSO was added into each well. The plate was gently shaken for 10 min.
(§8) 5. The absorbance at 570 nm was measured on the plate reader.

SK—OV-3 = assay: Cell proliferation assay (MTT), SK-OV-3; format: cell-based; conditions: Homo sapiens, SK—OV-3 cells, 72 hours, read-out: potency (IC50), SK—OV-3 cell assay
Procedure: as §3, §4, §5, §6, §7, §8

SK—Br-3 = assay: Cell proliferation assay (MTT), SK-Br-3; format: cell-based; conditions: Homo sapiens, SK—Br-3 cells, 72 hours, read-out: potency (IC50), SK—Br-3 cell assay
Procedure: as §3, §4, §5, §6, §7, §8

A549 = assay: Cell proliferation assay (MTT), A549; format: cell-based; conditions: Homo sapiens, A549 cells, 72 hours, read-out: potency (IC50), A549 cell assay
Procedure: as §3, §4, §5, §6, §7, §8

A431 cell line xenograft = assay: In vivo subcutaneous A431 xenograft efficacy; conditions: nude mice, 10 mg/kg by oral gavage once daily for 14 days
Procedure: as §2

[4] = Solubility measurement (HPLC); format: physicochemical; conditions: thermodynamic from solid
Procedure: The compound was diluted with acetonitrile to 100 mL.
The solution was shook for 2 minutes and left for 30 minutes at 25° C. After standing for 30 minutes, precipitate was formed in the bottom of the EP. The solutions was filtered through 0.2 um membrane filter, and then diluted by 50 times with water.
The standard and sample solutions were injected into the HPLC on a Shim-Pack CLC-ODS C18 column (150 mm×6.0 mm, 5 um) with the same volume. The mobile phase consisted of acetonitrile with 2% […] −20 mM KH2PO4 buffer (pH=6.8) at a flow rate of 1 mL/minutes (40:60). The detection wavelength is at 264 nm. Calculation: solubility of sample=the concentration of standard×Area of sample×50/Area of standard.

EGFR (T790M/L858R) = EGFR (T790M/L858R) (Homo sapiens (Human), UniProt P00533, L858R/T790M); assay: In vitro EGFR (T790M/L858R) kinase activity inhibition assay (Kinase-Glo Plus luminescence); format: biochemical; conditions: 10 μM ATP, read-out: potency (IC50), enzyme assay (EGFR/T790M)
EGFR (T790M/L858R), sequence (P00533 25-1210 T790M/L858R): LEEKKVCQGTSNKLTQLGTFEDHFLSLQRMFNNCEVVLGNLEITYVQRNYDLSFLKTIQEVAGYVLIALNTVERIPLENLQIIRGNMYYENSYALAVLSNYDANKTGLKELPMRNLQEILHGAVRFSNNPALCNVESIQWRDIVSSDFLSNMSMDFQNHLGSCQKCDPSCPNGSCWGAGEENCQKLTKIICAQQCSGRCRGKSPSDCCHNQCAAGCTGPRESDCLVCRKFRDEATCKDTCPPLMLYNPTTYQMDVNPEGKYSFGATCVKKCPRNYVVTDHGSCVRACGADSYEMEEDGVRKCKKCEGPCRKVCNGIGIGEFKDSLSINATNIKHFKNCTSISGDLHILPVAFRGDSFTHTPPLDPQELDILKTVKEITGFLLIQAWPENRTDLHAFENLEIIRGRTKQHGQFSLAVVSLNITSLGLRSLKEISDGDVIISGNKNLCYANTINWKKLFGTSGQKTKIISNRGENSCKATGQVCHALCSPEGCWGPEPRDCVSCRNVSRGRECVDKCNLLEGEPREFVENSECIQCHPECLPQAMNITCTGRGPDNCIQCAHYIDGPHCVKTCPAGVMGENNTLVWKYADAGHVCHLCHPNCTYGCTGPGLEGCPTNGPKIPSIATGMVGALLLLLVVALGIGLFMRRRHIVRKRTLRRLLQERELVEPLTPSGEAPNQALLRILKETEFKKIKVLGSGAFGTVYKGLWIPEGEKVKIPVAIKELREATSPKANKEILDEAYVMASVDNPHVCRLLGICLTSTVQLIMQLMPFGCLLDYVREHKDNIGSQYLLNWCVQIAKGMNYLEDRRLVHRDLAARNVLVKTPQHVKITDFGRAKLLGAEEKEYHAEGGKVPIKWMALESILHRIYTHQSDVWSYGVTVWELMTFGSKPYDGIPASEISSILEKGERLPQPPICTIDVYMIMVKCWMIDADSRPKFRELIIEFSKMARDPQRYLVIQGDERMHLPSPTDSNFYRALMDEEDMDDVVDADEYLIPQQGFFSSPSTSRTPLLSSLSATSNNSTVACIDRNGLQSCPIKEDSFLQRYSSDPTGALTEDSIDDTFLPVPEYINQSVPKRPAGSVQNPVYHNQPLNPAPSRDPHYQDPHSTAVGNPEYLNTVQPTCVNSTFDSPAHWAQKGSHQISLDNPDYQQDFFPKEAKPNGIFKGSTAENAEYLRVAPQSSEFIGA
Procedure: 2. […] It measures kinase activity by quantitating the amount of ATP remaining in solution following a kinase reaction. The luminescent signal from the assay is correlated with the amount of ATP present and is inversely correlated with the amount of kinase activity. […] Luminescence signal was measured using a BioTek Synergy 2 microplate reader.
3. […] The luminescence data were analyzed using the computer software, Graphpad Prism. […] The IC50 value was determined by the concentration causing a half-maximal percent activity.

A431 = assay: Cell proliferation assay (MTT), A431; format: cell-based; conditions: Homo sapiens, A-431, A431 cells, 72 hours
Procedure: as §3, §4, §5, §6, §7, §8

BT474 = assay: Cell proliferation assay (MTT), BT474; format: cell-based; conditions: Homo sapiens, BT-474, BT474 cells, 72 hours
Procedure: as §3, §4, §5, §6, §7, §8

[5] = test system: NCI—H1975 cell line xenograft; assay: In vivo subcutaneous NCI-H1975 xenograft efficacy; conditions: nude mice
Procedure: A representative protocol for the in vivo experiment is as followed to establish the subcutaneous NCI—H1975 cell line xenograft model in nude mice and to evaluate the in vivo therapeutic efficacy of the compounds: H1975 cells were cultured in RPMI1640 containing 10% fetal bovine serum, 1% L-glutamine, 100 U/mL penicillinG and 100 μg/mL streptomycin. Cells in logarithmic growth phase were harvested and resuspended in 1×PBS for implantation.
Tumor xenografts were established by injecting tumor cells 5×10^6/mouse into the right flank by sc under sterile conditions. When the tumors reached an appropriate size (100-200 mm^3), mice were randomized into 6 mice per group (8 mice in control group). The tumors were measured using a caliper in two dimensions, length (a), and width (b). […]
The tumor sizes and animal body weights were measured twice a week. […] The parameters for in vivo efficacy evaluation were calculated according to the guidance of SFDA. Percent T/C (%) was calculated with the following formula: T/C (%)=(TRTV/CRTV)×100%, where TRTV and CRTV stand for relative tumor volume in treatment group and vehicle control group, respectively. Relative tumor volume (RTV) was calculated using the formula: RTV=Vt/V0, where Vt represents volume on testing day, and V0 represents volume on first day of treatment. […]

[6] = aqueous buffer, pH 6.8 buffer solution (20 mM), 25° C., read-out: Solubility at pH 6.8
[7] = buffer solution (pH 7.6), 25 °C, pH 7.6, aqueous buffer, read-out: Solubility at pH 7.6

IC50 (SK—OV-3) [µM] | IC50 (SK—Br-3) [µM] | IC50 (A549) [µM] | solubility at 30 min [4, 6] [µg/mL] | solubility at 30 min [4, 7] [µg/mL] | IC50 (EGFR (T790M/L858R)) [nM] | IC50 (A431) [µM] | IC50 (BT474) [nM] | Structure (SMILES) | Day 7 Weight change [1] [%] | ALT [2] | AST [2] | Body weight change, Day 7 [3] [%] | Body weight change, Day 10 [3] [%] | IC50 (NCI—H1975) [µM] | Tumor growth inhibition (TGI, %) (A431 cell line xenograft) [%] | efficacy in the NCI—H1975 xenograft study [5]
– | – | – | – | – | – | – | – | CN(C)C/C=C/C(=O)Nc1cc2c(Nc3ccc(F)c(Cl)c3)ncnc2cc1O[C@H]1CCOC1 [Afatinib, reference compound] | −0.9 | 49.50 | 265.67 | −2.2 | 0.4 | – | – | –
< 10 | < 10 | < 10 | 3370 (≈ 6950 µM) | 238 (≈ 490 µM) | – | – | – | C#Cc1cccc(Nc2ncnc3cc(O[C@H]4CCOC4)c(NC(=O)/C=C/CN(CC)CC)cc23)c1 [Compound 20, (S,E)-4-(diethylamino)-N-(4-((3-ethynylphenyl)amino)-7-((tetrahydrofuran-3-yl)oxy)quinazolin-6-yl)but-2-enamide] | 3.5 | 41.67 | 142.33 | 1.5 | 4.3 | < 10 | 94 | –
< 10 | < 10 | < 10 | 150 (≈ 328 µM) | 25 (≈ 54.6 µM) | < 100 | 3.1 | 57 | C#Cc1cccc(Nc2ncnc3cc(O[C@H]4CCOC4)c(NC(=O)/C=C/CN(C)C)cc23)c1 [Compound 13, (S,E)-4-(dimethylamino)-N-(4-((3-ethynylphenyl)amino)-7-((tetrahydrofuran-3-yl)oxy)quinazolin-6-yl)but-2-enamide] | 0.1 | – | – | – | – | < 10 | – | good efficacy
